Laboratory results as given in patent US8138158B2, “Compositions and methods for therapy for diseases characterized by defective chloride transport” (Children's Hospital & Research Center at Oakland, priority 1997, dated 2012).

Tests used:
[1] = test system: CF15 monolayers homozygous for ΔF508 CFTR; assay: Short-circuit current across CF15 monolayers homozygous for ΔF508 CFTR; format: cell-based, human; details: D-isoascorbate 300 μm
Procedure: (§1) Human airway cell culture. The human submucosal serous gland-like cell line Calu-3, the CF nasal epithelial cell line homozygous for ΔF508 CFTR (CF15) and human tracheal primary cultures (hTE) were cultured as described (Jefferson, D. M., Valentich, J. D., Marini, F. C., Grubman, S. A., Iannuzzi, M. C., Dorkin, H. L., Li, M., Klinger, K. W. & Welsh, M. J. (1990) Am. J. Physiol. 259, L496-L505. Sachs, L. A., Finkbeiner, W. E. & Widdicombe, J. H. (2003) In Vitro Cell Dev. Biol. Anim. 39, 56-62.). Wildtype CFTR-corrected CF15 cells were generated via adenovirus-mediated gene transfer. Growth media were nominally free of ascorbic acid (<10 μm, University Pathology Inc., Salt Lake City, Utah). For transepithelial measurements cells were grown on permeable filter inserts and used after 3 to 10 days.
(§2) Short-circuit current measurement. Calu-3 or CF15 cells were grown as monolayers, mounted in Ussing chambers and short-circuit current (ISC) was recorded as described (Illek, B. & Fischer, H. (1998) Am. J. Physiol. 275, L902-L910). At 20-50 second intervals, transepithelial voltage was clamped from zero to 2 mV and the transepithelial resistance (Rte) was calculated. A serosa-to-mucosa-directed Cl gradient was applied. Serosal Ussing chamber solution contained (in mM): 120 NaCl, 20 NaHCO3, 5 KHCO3, 1.2 NaH2PO4, 5.6 glucose, 2.5 CaCl2, 1.2 MgCl2. In mucosal Ussing chamber solutions, all Cl salts were exchanged for gluconate salts.
The CF15 cell line was used to determine whether ascorbate-stimulated Cl currents were solely mediated by the CFTR Cl conductance. The CF15 cell line is characterized by the absence of functional CFTR in the apical plasma membrane but the presence of other non-CFTR Cl conductances (Jefferson, D. M., Valentich, J. D., Marini, F. C., Grubman, S. A., Iannuzzi, M. C., Dorkin, H. L., Li, M., Klinger, K. W. & Welsh, M. J. (1990) Am. J. Physiol. 259, L496-L505). A concentration of L-ascorbic acid that lay within the upper plateau of the dose response curve (500 μm) was applied and ascorbate-stimulated Cl currents in CF15 vs. wildtype CFTR-corrected CF15 monolayers was compared (FIG. 23A). […] The defective response to L-ascorbic acid was reversed in wildtype CFTR-corrected CF15 epithelia such that ISC responded promptly to L-ascorbic acid (ΔISC=7.5±0.5 μA/cm^2, n=6). The ascorbate-stimulated current was further activated by the cAMP agonist forskolin and total stimulated ISC averaged 12.1±1.1 μA/cm^2 (FIG. 4B). The ascorbate-stimulated Cl current reached 60±15% of the forskolin-stimulated current in CFTR-corrected CF15 monolayers, which was close to the corresponding findings in Calu-3 monolayers (68%, see FIG. 21A). […]
(§3) In this example, chloride currents stimulated by L-ascorbate or D-ascorbate were measured in CF15 versus. wildtype CFTR-corrected CF15 monolayers. A concentration of L-ascorbate (1 mM) or D-isoascorbate (300 μm) that lay within the upper plateau of the dose-response curve was applied to cells and the resulting chloride currents stimulated in CF15 versus wildtype CFTR-corrected CF15 monolayers were measured (FIG. 25 A-H). […]
The functional activation of ΔF508 CFTR was determined after correction of the underlying trafficking defect of ΔF508 CFTR using S-Nitrosoglutathione (Zaman, et al., Biochem Biophys Res Commun 284: 65-70, 2001; Snyder, et al., American Journal of Respiratory and Critical Care Medicine 165: 922-6, 2002; Andersson, et al. Biochemical and Biophysical Research Communication 297(3): 552-557, 2002.). […]

[2] = target: T1, ΔF508 CFTR (Mus musculus, UniProt P26361, DEL508-508); assay: Rectal potential difference (RPD) in mice homozygous for ΔF508 CFTR; format: in vivo
T1 construct: from tissue; host or cells: rectal mucosa of living ΔF508 CF mice (C57Bl6/J), TMAO-treated or water-injected
T1 sequence (P26361 with tags, fused parts or gaps DEL508-508): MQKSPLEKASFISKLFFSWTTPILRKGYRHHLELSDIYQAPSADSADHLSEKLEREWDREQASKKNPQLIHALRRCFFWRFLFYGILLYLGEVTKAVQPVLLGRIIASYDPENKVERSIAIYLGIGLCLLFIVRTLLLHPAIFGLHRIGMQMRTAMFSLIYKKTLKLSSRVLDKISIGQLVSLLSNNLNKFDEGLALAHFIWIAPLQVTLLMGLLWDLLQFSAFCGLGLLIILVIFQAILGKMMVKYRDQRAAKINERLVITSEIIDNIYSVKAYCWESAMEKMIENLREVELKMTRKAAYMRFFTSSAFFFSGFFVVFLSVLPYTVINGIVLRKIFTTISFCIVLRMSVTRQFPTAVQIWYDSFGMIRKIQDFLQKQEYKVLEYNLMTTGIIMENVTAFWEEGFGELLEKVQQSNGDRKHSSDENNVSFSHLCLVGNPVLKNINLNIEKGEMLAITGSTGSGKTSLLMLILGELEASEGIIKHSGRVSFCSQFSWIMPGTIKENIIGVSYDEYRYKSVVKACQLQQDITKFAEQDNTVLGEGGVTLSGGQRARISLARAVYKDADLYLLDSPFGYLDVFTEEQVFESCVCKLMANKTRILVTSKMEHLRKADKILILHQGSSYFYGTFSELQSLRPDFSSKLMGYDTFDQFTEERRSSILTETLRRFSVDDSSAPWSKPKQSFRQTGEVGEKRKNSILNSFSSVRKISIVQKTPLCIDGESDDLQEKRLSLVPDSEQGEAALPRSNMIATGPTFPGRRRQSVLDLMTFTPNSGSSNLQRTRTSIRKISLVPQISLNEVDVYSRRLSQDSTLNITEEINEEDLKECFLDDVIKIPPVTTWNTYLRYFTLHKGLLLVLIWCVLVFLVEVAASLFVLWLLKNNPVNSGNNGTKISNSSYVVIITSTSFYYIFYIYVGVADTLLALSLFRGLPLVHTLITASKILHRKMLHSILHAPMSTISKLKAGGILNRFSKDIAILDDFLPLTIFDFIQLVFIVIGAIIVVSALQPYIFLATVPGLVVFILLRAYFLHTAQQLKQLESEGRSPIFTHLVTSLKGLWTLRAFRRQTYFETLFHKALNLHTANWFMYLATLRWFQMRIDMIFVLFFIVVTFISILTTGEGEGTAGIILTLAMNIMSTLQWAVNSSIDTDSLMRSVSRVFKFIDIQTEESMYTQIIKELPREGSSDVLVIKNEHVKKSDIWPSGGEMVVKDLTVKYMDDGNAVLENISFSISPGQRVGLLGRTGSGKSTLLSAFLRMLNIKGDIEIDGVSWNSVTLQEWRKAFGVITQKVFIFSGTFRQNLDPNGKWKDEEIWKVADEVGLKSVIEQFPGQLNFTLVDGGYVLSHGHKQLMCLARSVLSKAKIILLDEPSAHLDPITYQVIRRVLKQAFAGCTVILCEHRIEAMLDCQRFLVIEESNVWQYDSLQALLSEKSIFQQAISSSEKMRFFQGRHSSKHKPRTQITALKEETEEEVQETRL
Description: CF mice and rectal potential difference (RPD) measurements. Gene-targeted mice homozygous for the ΔF508 mutation (C57Bl6/J) received Golytely® (Braintree Laboratories, Inc.), a diarrhetic supplement, in the drinking water to increase their lifespan (Clarke, L. L., Gawenis, L. R., Franklin, C. L. & Harline, M. C. (1996) Lab. Anim. Sci. 46, 612-8). To correct the maturation defect of ΔF508 CFTR we used the chemical chaperone trimethylamine oxide (TMAO) (Brown, C. R., Hong-Brown, L. Q., Biwersi, J., Verkman, A. S. & Welch, W. J. (1996) Cell Stress Chaperones 1, 117-25). CF mice were injected with 4 mg/g TMAO from a 4 M stock solution every 8 hours for 24 hours, which is a regimen to partially correct the ΔF508 defect in CF mice (Fischer, H., Barbry, P., Illek, B., Sartori, C., Fukuda, N. & Matthay, M. A. (2001) Am. J. Physiol. 281, L52-L57). Controls were water-injected. The RPD assay was performed on mice that were anesthetized with 0.1 mg/g body weight ketamine and 0.01 mg/g body weight azepromazine. RPD was sensed with a 1 M NaCl agar bridge inserted ˜1 cm into the rectum vs. a subcutaneous needle filled with 1 M NaCl. Measurements were performed in Cl free solution containing 100 μm amiloride and 5 mM Ba(OH)2 to isolate the Cl-selective RPD.
In this Example, it was determined whether L-ascorbic acid affected the functional activation of ΔF508 CFTR in a CF-affected organism in vivo. Using gene-targeted mice homozygous for the ΔF508 mutation it was shown previously that the osmolyte trimethylamine oxide (TMAO) effectively supported ΔF508 CFTR trafficking in vivo (Fischer, H., Barbry, P., Illek, B., Sartori, C., Fukuda, N. & Matthay, M. A. (2001) Am. J. Physiol. 281, L52-L57). Accordingly, the effect of L-ascorbic acid was tested in homozygous ΔF508 CF mice treated with TMAO by using the RPD assay as a functional end point measure for mutant ΔF508-CFTR function. FIG. 24A illustrates that TMAO-treated CF mice manifested a detectable response to a maximal dose of L-ascorbic acid (1 mM) or its epimer D-isoascorbic acid (300 μM) and RPD hyperpolarized on average by −3.2±0.8 mV (n=4) and −3.6±1.8 mV (n=3), respectively (FIG. 24B).

[3] = test system: wildtype CFTR-corrected CF15 monolayers; assay: Short-circuit current across wildtype CFTR-corrected CF15 monolayers; format: cell-based, human; details: D-isoascorbate 300 μm; amiloride; n=2
Procedure: as §1, §2
The CF15 cell line was used to determine whether ascorbate-stimulated Cl currents were solely mediated by the CFTR Cl conductance. The CF15 cell line is characterized by the absence of functional CFTR in the apical plasma membrane but the presence of other non-CFTR Cl conductances (Jefferson, D. M., Valentich, J. D., Marini, F. C., Grubman, S. A., Iannuzzi, M. C., Dorkin, H. L., Li, M., Klinger, K. W. & Welsh, M. J. (1990) Am. J. Physiol. 259, L496-L505). A concentration of L-ascorbic acid that lay within the upper plateau of the dose response curve (500 μm) was applied and ascorbate-stimulated Cl currents in CF15 vs. wildtype CFTR-corrected CF15 monolayers was compared (FIG. 23A). […] The defective response to L-ascorbic acid was reversed in wildtype CFTR-corrected CF15 epithelia such that ISC responded promptly to L-ascorbic acid (ΔISC=7.5±0.5 μA/cm^2, n=6). The ascorbate-stimulated current was further activated by the cAMP agonist forskolin and total stimulated ISC averaged 12.1±1.1 μA/cm^2 (FIG. 4B). The ascorbate-stimulated Cl current reached 60±15% of the forskolin-stimulated current in CFTR-corrected CF15 monolayers, which was close to the corresponding findings in Calu-3 monolayers (68%, see FIG. 21A). The absence of ascorbate-stimulated Cl currents in CF15 monolayers supports the notion that non-CFTR Cl conductances were not activated by L-ascorbic acid.
as §3, with “A-H). All experiments were performed in the presence of the sodium channel blocker amiloride.” for “A-H).”

[4] = test system: Calu-3 cell monolayer; assay: Short-circuit current across α-toxin-permeabilized Calu-3 cell monolayer in Ussing chamber; format: cell-based, human; details: tissue first stimulated with forskolin 10 μM; biochanin A 100 and 300 μM
Description: Within one in vitro assay, the level of chloride transport may be evaluated using mammalian pulmonary cell lines, such as Calu-3 cells, or primary human, rat, mouse and bovine tracheal and alveolar cell cultures, as well as intestinal epithelial cell lines, such as T84, HT-29, Caco-2 and cell lines of other epithelial origin such as MDCK and FRT. In general, such assays employ cell monolayers, which may be prepared by standard cell culture techniques. Within such systems, CFTR-mediated chloride current may be monitored in an Ussing chamber using intact epithelia. Anion efflux assays may be used to detect CFTR-mediated transport (e.g., iodide efflux, see for example RNA. 2003 October; 9(10): 1290-7). Additionally, chloride transport (or generally airway surface liquid composition), can be evaluated using any number of indicators such as described in J Gen Physiol. 2003 November; 122(5): 511-9. Alternatively, chloride transport may be evaluated using epithelial tissue in which the basolateral membrane is permeabilized with anion-selective ionophores such as nystatin, amphotericin B or Staphylococcus aureus α-toxin, and in which a chloride gradient is imposed across the apical membrane (see Illek et al., Am. J. Physiol. 270:C265-75, 1996). In either system, chloride transport is evaluated in the presence and absence of a test compound (i.e., a flavone or isoflavone, or ascorbate or derivative thereof), and those compounds that stimulate chloride transport as described above may be used within the methods provided herein.
A Calu-3 cell monolayer was prepared in an Ussing chamber as described by Illek et al., Am. J. Physiol. 270:C265-275, 1996. […]
To evaluate the effect of biochanin A, a Calu-3 cell monolayer was prepared and permeabilized as described above. […] The effect of biochanin A (Bio, 100 and 300 μM) on short-circuit current (ISC) across the Calu-3 monolayer was evaluated in an Ussing chamber.

[5] = test system: Calu-3 monolayers; assay: Transepithelial chloride currents in forskolin-prestimulated Calu-3 monolayers; format: cell-based, human; details: prestimulated with 10 μM forskolin; compound at 100 μM
Procedure: FIGS. 13A-13C illustrate the effect of additional representative flavonoids and isoflavonoids on chloride current in epithelial cells. FIG. 13A is a graph showing the stimulation of transepithelial chloride currents by reservatrol (100 μM), flavanone (100 μM), flavone (200 μM), apigenin (20 μM), apigenin 7-O-neohesperidoside (30 μM), kaempferol (20 μM), fisetin (100 μM), quercetin (30 μM), rutin (30 μM), genistein (30 μM), daidzein (50 μM), biochanin A (100 μM) and prunetin (100 μM) in Calu-3 monolayers. Experiments were performed in the presence of 10 μM forskolin. Stimulated currents are plotted relative to forskolin stimulated increase (forskolin stimulated currents are 100%). FIG. 13B is a recording showing the effect of 7,4′-dihydroxyflavone on chloride current in unstimulated tissue. […] Increasing concentrations of 7,4′-dihydroxyflavone (as indicated in μM) were added to mucosal side and dose-dependently stimulated chloride currents. Currents were recorded with a serosal-to-mucosal chloride gradient at 0 mV and pulses were obtained at 2 mV. FIG. 13C is a recording illustrating the effect of trimethoxy-apigenin. […] Increasing concentrations of trimethoxy-apigenin (as indicated in μM) were added to mucosal side and dose-dependently stimulated chloride currents. Experiment was performed on unstimulated tissue. Currents were recorded with a serosal-to-mucosal chloride gradient at 0 mV and pulses were obtained at 2 mV.
Airway epithelial cells were prestimulated with 10 μM forskolin. The percent increase in chloride current was then determined following treatment with a series of polyphenolic compounds. FIG. 13A summarizes the stimulatory effect of these compounds.

O=C1O[C@H]([C@H](O)CO)C(O)=C1O [D-isoascorbic acid]
transepithelial chloride currents increased on average by ([1]; CF15 treated with 1 mM SNOG for 5-24 hours, n=8): 3.1±0.5
ΔIsc ([1]; untreated CF epithelia, amiloride, n=7): 0.7±1.0 μA/cm^2
RPD hyperpolarized on average by ([2]; CF mice treated with 4 mg/g TMAO for 24 hours, D-isoascorbic acid 300 μM, n=3): −3.6±1.8 mV
ΔRPD ([2]; water-injected control CF mice, L-ascorbic acid or D-isoascorbic acid, n=9): −1.1±0.4 mV
ΔIsc [3]: 6.6±1.7 μA/cm^2

C[N+](C)(C)[O-] [TMAO, trimethylamine oxide, reference compound]
increase of ascorbate- and isoascorbate-stimulated RPD compared to untreated CF mice ([2]; TMAO 4 mg/g every 8 hours for 24 hours): approximately 3 fold

COc1ccc(-c2coc3cc(O)cc(O)c3c2=O)cc1 [biochanin A, 4′-methoxy-5,7-dihydroxyisoflavone]
short-circuit current (ISC), chloride secretion [4]: further stimulated chloride secretion
chloride currents further stimulated to (forskolin stimulated currents are 100%) [5]: 139%
